Tests used:
PKB = PKB phosphorylation in transfected HEK cells (Western blot); assay type: cell-based, human
Experimental: Figure 4 cSH2 Is Important for p110β Inhibition In Vitro and in Cells (A) Kinase activity of human p110β and icSH2 wild-type constructs from three human regulatory subunits (p85α, p85β, and p55γ) in the absence and presence of 10 μM PDGFR pY2 (y axis as in Figure 1B). EC50s for wild-type and icSH2 tyrosine mutants, in the absence and presence of 10 μM PDGF pY2, are shown. (B) Western blots of HEK cells transiently expressing wild-type and mutant human p110β/p85α. The membrane was probed with antibodies against PKB, pPKB (pSer473), myc (p110β), FLAG (p85α), and actin. Bar graphs show mean ± SEM (n = 3) of PKB phosphorylation level normalized to wild-type p110β/p85α (WT). The position of the three mutations is mapped on the p110β/p85β structure. TEXT PRINTED IN THE PICTURE: (A) p110β/p85α-ic: EC50 (nM): 3 | (A) p110β/p85α-ic+pY2: EC50 (nM): 0.3 | (A) p110β/p85β-ic: EC50 (nM): 1.2 | (A) p110β/p85β-ic+pY2: EC50 (nM): 0.3 | (A) p110β/p55γ-ic: EC50 (nM): 1.5 | (A) p110β/p55γ-ic+pY2: EC50 (nM): 0.3 | (A) p110β/p85α-ic-Y685A: EC50 (nM): 0.3 | (A) p110β/p85α-ic-Y685A+pY2: EC50 (nM): 0.3 | (A) p110β/p85β-ic-Y683A: EC50 (nM): 0.4 | (A) p110β/p85β-ic-Y683A+pY2: EC50 (nM): 0.3 | (A) p110β/p55γ-ic-Y419A: EC50 (nM): 0.2 | (A) p110β/p55γ-ic-Y419A+pY2: EC50 (nM): 0.2 […]
Figure S4, Related to Figure 4. Tyr-Mutation in cSH2 Activates PI3K Downstream […]
(A) Western blot of HEK cells over-expressing wild-type and mutant human p110β/p85α complexes. Protein kinase B (PKB) phosphorylation (pPKB) levels at residues Ser473 and Thr308 were quantified and normalized WT p110β/p85α (WT).
(B) Quantification of PtdIns(3,4,5)P3 levels in HEK cells over-expressing wild-type and mutant human p110β/p85α complexes. Phospholipids were extracted from cells and PtdIns(3,4,5)P3 and PtdIns(4,5)P2 levels were quantified by mass spectrometry.
PtdIns(3,4,5)P3 / […] for each construct for two separate experiments measured in duplicates. Error bars indicate SEM. […]
The PIP3 lipids produced in PI3K in vitro assays as described above were also measured by a mass-spectrometry based assay (Clark et al.). […]

p110β = test: Transcreener ADP formation (fluorescence polarization), diC8-PIP2/POPS liposomes, mouse p110β complexes; assay type: biochemical; details: absence of pY2; ADP formation; Figures 3A, 3B
Experimental: (§1) Figure 1 Inhibition of p110β by p85-Type Regulatory Subunits and Activation of the Complexes by RTK Phosphopeptide (A) Domain organization of p110β and the regulatory subunits p85α, p85β, and p55γ. The color scheme for the domains is used for all figures, unless otherwise stated. […] The inhibition is released upon addition of the 10 μM PDGFR pY2. […] The y axis is expressed as a change in fluorescence polarization (ΔmP), which is obtained by subtracting the observed polarization for the construct at a given enzyme concentration from the maximum fluorescence polarization for that construct. The plateau in these assays arises due to the competitive nature of the ADP detection system, based on displacement of ADP-Alexa 633 tracer from the ADP^2-antibody by ADP generated during the PI3K assay (see Supplemental Experimental Procedures). All measurements were done in triplicates, and the error bars indicate the standard error of the mean (SEM). […]
Figure 3 Mutation Y677A in p85β-cSH2 Releases Inhibitory Effect on p110β (A) Kinase activity (ADP formation) of p110β in a complex with p85β-icSH2-Y677A (Y677A-ic) compared to the wild-type complex (ic) in the absence and presence of 10 μM PDGFR pY2 (ADP formation on the y axis expressed as in Figure 1B). […]
The lipid kinase activity was determined using the Transcreener ADP2 FP Assay (BellBrook Labs, Madison, WI) according to manufacturer‟s specifications. This non-radioactive assay measures activity by quantitating the amount of ADP formed. The ADP formed by PI3K competes with fluorescent ADP tracer for binding to an anti-ADP antibody, thereby decreasing fluorescence polarization. Because of the competitive nature of this assay, the change in fluorescence polarization signal is not a linear function of enzyme activity, and a convenient measure of enzyme activity is the EC50, or the concentration of enzyme necessary to give half-maximal inhibition of labeled ADP binding to the antibody, for a given concentration of substrate and a fixed time of reaction at initial rate. […]

p110β/p85β-nic = test: ATPase activity (ADP formation) in the absence of lipid substrate, Transcreener; assay type: biochemical, mouse; details: absence of lipid substrate; 75 nM protein, 100 μM ATP; 5 μM GDC0941 or D913N mutation; Figure S3B
Experimental: as §1
The lipid kinase activity was determined using the Transcreener ADP2 FP Assay (BellBrook Labs, Madison, WI) according to manufacturer‟s specifications. This non-radioactive assay measures activity by quantitating the amount of ADP formed. The ADP formed by PI3K competes with fluorescent ADP tracer for binding to an anti-ADP antibody, thereby decreasing fluorescence polarization. […]

p110β/p85α-N564D: heterodimer carrying somatic p85α mutation N564D
phosphorylation of PKB Ser473 (PKB; HEK cells, Figure 4B, n = 3): increase in phosphorylation | phosphorylation of PKB Thr308 (PKB; HEK cells, Figure S4A): increase in phosphorylation

nicSH2-Y677A: p110β complex with regulatory construct containing wild-type nSH2 but mutant cSH2-Y677A
basal activity versus wild-type complex (p110β): basal activity higher than the wild-type

CS(=O)(=O)N1CCN(Cc2cc3nc(-c4cccc5[nH]ncc45)nc(N4CCOCC4)c3s2)CC1 [GDC0941, 2-(1H-indazol-4-yl)-6-(4-methanesulfonyl-piperazin-1-ylmethyl)-4-morpholin-4-yl-thieno[3,2-d]pyrimidine]
inhibition of ATPase activity (p110β/p85β-nic): fully inhibited

p85α-Y685A: full-length human p85α-Y685A cotransfected with human wild-type p110β
increase in PKB phosphorylation relative to wild-type heterodimer (PKB; HEK293T cells cotransfected with human p110β and p85α mutant, pSer473 mean n = 3, Figures 4B and S4A): 2 fold
